Measurements taken from patent US10954269B2, “Anti-inflammatory tripeptides” (Dr. August Wolff Gmbh & Co. KG Arzneimittel, priority 2013, dated 2021).

Tests used:
[1] = test system: human keratinocyte cell line (HaCaT); assay: Cytokine secretion on protein level in activated human keratinocyte cell line HaCaT (13-plex FACS / Luminex, supernatant); assay type: cell-based; details: for IL-1 cytokine concentration / IL-2 cytokine concentration / IL-4 cytokine concentration / IL-5 cytokine concentration / IL-6 cytokine concentration / IL-9 cytokine concentration / IL-10 cytokine concentration / IL-12p70 cytokine concentration / IL-13 cytokine concentration / IL-17 cytokine concentration / IL-22 cytokine concentration / TNF-α cytokine concentration / IFN-γ cytokine concentration: substance 10^−9M
How it was run: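 Stimulus: PMA/Ionomycin or IFN-γ, 48 h; cells: HaCaT or human peripheral-blood T-cells; tripeptide treatment; readout: supernatant cytokines via 13-plex FACS or Luminex, 48–72 h post-stimulation.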

primary murine T-cells = assay: Cytokine secretion on protein level in activated primary murine T-cells (13-plex FACS / Luminex, supernatant); assay type: cell-based, C57BL/6 mice; details: for IL-1 cytokine concentration / IL-2 cytokine concentration / IL-4 cytokine concentration / IL-5 cytokine concentration / IL-6 cytokine concentration / IL-10 cytokine concentration / IL-13 cytokine concentration / IL-17 cytokine concentration / IL-21 cytokine concentration / IL-22 cytokine concentration / IL-27 cytokine concentration / TNF-α cytokine concentration / IFN-γ cytokine concentration: substance 10^−9M
How it was run: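 T-cells from secondary lymphatic organs of naïve C57BL/6 mice, stimulated with PMA/Ionomycin or IFN-γ; supernatant cytokines measured by 13-plex FACS 48 h and 72 h after stimulation. In another run, PMA/Ionomycin-stimulated cells received compounds at 10^−7, 10^−9 and 10^−11 M, with IFN-γ, IL-17 and IL-10 measured by Luminex.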

primary human T-cells = assay: Cytokine secretion on protein level in activated primary human T-cells (13-plex FACS / Luminex, supernatant); assay type: cell-based; details: for IL-1 cytokine concentration / IL-2 cytokine concentration / IL-4 cytokine concentration / IL-5 cytokine concentration / IL-6 cytokine concentration / IL-9 cytokine concentration / IL-10 cytokine concentration / IL-12p70 cytokine concentration / IL-13 cytokine concentration / IL-17 cytokine concentration / IL-22 cytokine concentration / TNF-α cytokine concentration / INF-α cytokine concentration: substance 10^−9M
How it was run: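 First, T-cells are isolated from healthy donors' blood. Next, they and HaCaT keratinocytes are activated for 48 h with PMA/Ionomycin or IFN-γ in the presence of tripeptides. Finally, secreted cytokines are quantified in supernatants by 13-plex FACS at 48 and 72 h.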

[2] = HaCaT stimulated with PMA/Ionomycin
[3] = primary murine T-cells stimulated with IFN-γ
[4] = primary murine T-cells stimulated with PBS
[5] = primary murine T-cells stimulated with PMA/Ionomycin
[6] = primary human T-cells stimulated with IFN-γ
[7] = primary human T-cells stimulated with PBS
[8] = primary human T-cells stimulated with PMA/Ionomycin

Substance: H-(L)-Nle-(L)-Pro-Aib-OH [Example 12]
- IL-1 cytokine concentration ([1]; HaCaT stimulated with IFN-γ): 9.31 pg/mL
- IL-2 cytokine concentration ([1]; HaCaT stimulated with IFN-γ): 0 pg/mL
- IL-4 cytokine concentration ([1]; HaCaT stimulated with IFN-γ): 69.91 pg/mL
- IL-5 cytokine concentration ([1]; HaCaT stimulated with IFN-γ): 0 pg/mL
- IL-6 cytokine concentration ([1]; HaCaT stimulated with IFN-γ): 297.09 pg/mL
- IL-9 cytokine concentration ([1]; HaCaT stimulated with IFN-γ): 0 pg/mL
- IL-10 cytokine concentration ([1]; HaCaT stimulated with IFN-γ): 0 pg/mL
- IL-12p70 cytokine concentration ([1]; HaCaT stimulated with IFN-γ): 0 pg/mL
- IL-13 cytokine concentration ([1]; HaCaT stimulated with IFN-γ): 195.68 pg/mL
- IL-17 cytokine concentration ([1]; HaCaT stimulated with IFN-γ): 56.13 pg/mL
- IL-22 cytokine concentration ([1]; HaCaT stimulated with IFN-γ): 0 pg/mL
- TNF-α cytokine concentration ([1]; HaCaT stimulated with IFN-γ): 0 pg/mL
- IFN-γ cytokine concentration ([1]; HaCaT stimulated with PBS): 0 pg/mL
- IL-1 cytokine concentration ([1]; HaCaT stimulated with PBS): 0 pg/mL
- IL-2 cytokine concentration ([1]; HaCaT stimulated with PBS): 0 pg/mL
- IL-4 cytokine concentration ([1]; HaCaT stimulated with PBS): 0 pg/mL
- IL-5 cytokine concentration ([1]; HaCaT stimulated with PBS): 0 pg/mL
- IL-6 cytokine concentration ([1]; HaCaT stimulated with PBS): 56.87 pg/mL
- IL-9 cytokine concentration ([1]; HaCaT stimulated with PBS): 4.96 pg/mL
- IL-10 cytokine concentration ([1]; HaCaT stimulated with PBS): 69.45 pg/mL
- IL-12p70 cytokine concentration ([1]; HaCaT stimulated with PBS): 0 pg/mL
- IL-13 cytokine concentration ([1]; HaCaT stimulated with PBS): 193.75 pg/mL
- IL-17 cytokine concentration ([1]; HaCaT stimulated with PBS): 0 pg/mL
- IL-22 cytokine concentration ([1]; HaCaT stimulated with PBS): 0 pg/mL
- TNF-α cytokine concentration ([1]; HaCaT stimulated with PBS): 5.55 pg/mL
- IFN-γ cytokine concentration [1, 2]: 22.77 pg/mL
- IL-1 cytokine concentration [1, 2]: 0 pg/mL
- IL-2 cytokine concentration [1, 2]: 0 pg/mL
- IL-4 cytokine concentration [1, 2]: 0 pg/mL
- IL-5 cytokine concentration [1, 2]: 0 pg/mL
- IL-6 cytokine concentration [1, 2]: 158.4 pg/mL
- IL-9 cytokine concentration [1, 2]: 0 pg/mL
- IL-10 cytokine concentration [1, 2]: 86.04 pg/mL
- IL-12p70 cytokine concentration [1, 2]: 0 pg/mL
- IL-13 cytokine concentration [1, 2]: 0 pg/mL
- IL-17 cytokine concentration [1, 2]: 25.98 pg/mL
- IL-22 cytokine concentration [1, 2]: 0 pg/mL
- TNF-α cytokine concentration [1, 2]: 0 pg/mL
- secretion / expression of pro-inflammatory cytokines (supernatant) ([1]; activated human keratinocytes): able to reduce
- secretion / expression of pro-inflammatory cytokines (supernatant) (primary murine T-cells; activated primary murine T-cells): able to reduce
- IL-1 cytokine concentration (primary murine T-cells; [3]): 86.08 pg/mL
- IL-2 cytokine concentration (primary murine T-cells; [3]): 88.9 pg/mL
- IL-4 cytokine concentration (primary murine T-cells; [3]): 34.22 pg/mL
- IL-5 cytokine concentration (primary murine T-cells; [3]): 221.57 pg/mL
- IL-6 cytokine concentration (primary murine T-cells; [3]): 110.7 pg/mL
- IL-10 cytokine concentration (primary murine T-cells; [3]): 1130.01 pg/mL
- IL-13 cytokine concentration (primary murine T-cells; [3]): 0 pg/mL
- IL-17 cytokine concentration (primary murine T-cells; [3]): 72.21 pg/mL
- IL-21 cytokine concentration (primary murine T-cells; [3]): 40.2 pg/mL
- IL-22 cytokine concentration (primary murine T-cells; [3]): 42.98 pg/mL
- IL-27 cytokine concentration (primary murine T-cells; [3]): 12.5 pg/mL
- TNF-α cytokine concentration (primary murine T-cells; [3]): 31.88 pg/mL
- IFN-γ cytokine concentration (primary murine T-cells; [4]): 0 pg/mL
- IL-1 cytokine concentration (primary murine T-cells; [4]): 61.52 pg/mL
- IL-2 cytokine concentration (primary murine T-cells; [4]): 189.72 pg/mL
- IL-4 cytokine concentration (primary murine T-cells; [4]): 32.24 pg/mL
- IL-5 cytokine concentration (primary murine T-cells; [4]): 331.87 pg/mL
- IL-6 cytokine concentration (primary murine T-cells; [4]): 223.98 pg/mL
- IL-10 cytokine concentration (primary murine T-cells; [4]): 872.36 pg/mL
- IL-13 cytokine concentration (primary murine T-cells; [4]): 0 pg/mL
- IL-17 cytokine concentration (primary murine T-cells; [4]): 0 pg/mL
- IL-21 cytokine concentration (primary murine T-cells; [4]): 69.64 pg/mL
- IL-22 cytokine concentration (primary murine T-cells; [4]): 76.71 pg/mL
- IL-27 cytokine concentration (primary murine T-cells; [4]): 71.85 pg/mL
- TNF-α cytokine concentration (primary murine T-cells; [4]): 74.9 pg/mL
- IFN-γ cytokine concentration (primary murine T-cells; [5]): 1298.02 pg/mL
- IL-1 cytokine concentration (primary murine T-cells; [5]): 167.79 pg/mL
- IL-2 cytokine concentration (primary murine T-cells; [5]): 98.57 pg/mL
- IL-4 cytokine concentration (primary murine T-cells; [5]): 90.14 pg/mL
- IL-5 cytokine concentration (primary murine T-cells; [5]): 242.24 pg/mL
- IL-6 cytokine concentration (primary murine T-cells; [5]): 116.16 pg/mL
- IL-10 cytokine concentration (primary murine T-cells; [5]): 1255.25 pg/mL
- IL-13 cytokine concentration (primary murine T-cells; [5]): 0 pg/mL
- IL-17 cytokine concentration (primary murine T-cells; [5]): 79.1 pg/mL
- IL-21 cytokine concentration (primary murine T-cells; [5]): 0 pg/mL
- IL-22 cytokine concentration (primary murine T-cells; [5]): 57.07 pg/mL
- IL-27 cytokine concentration (primary murine T-cells; [5]): 80.09 pg/mL
- TNF-α cytokine concentration (primary murine T-cells; [5]): 50.73 pg/mL
- secretion / expression of pro-inflammatory cytokines (supernatant) (primary human T-cells; activated primary human T-cells): able to reduce
- IL-1 cytokine concentration (primary human T-cells; [6]): 44.77 pg/mL
- IL-2 cytokine concentration (primary human T-cells; [6]): 0 pg/mL
- IL-4 cytokine concentration (primary human T-cells; [6]): 0 pg/mL
- IL-5 cytokine concentration (primary human T-cells; [6]): 0 pg/mL
- IL-6 cytokine concentration (primary human T-cells; [6]): 60.44 pg/mL
- IL-9 cytokine concentration (primary human T-cells; [6]): 7.67 pg/mL
- IL-10 cytokine concentration (primary human T-cells; [6]): 84.25 pg/mL
- IL-12p70 cytokine concentration (primary human T-cells; [6]): 0 pg/mL
- IL-13 cytokine concentration (primary human T-cells; [6]): 0 pg/mL
- IL-17 cytokine concentration (primary human T-cells; [6]): 0 pg/mL
- IL-22 cytokine concentration (primary human T-cells; [6]): 0 pg/mL
- TNF-α cytokine concentration (primary human T-cells; [6]): 41.38 pg/mL
- IL-1 cytokine concentration (primary human T-cells; [7]): 0 pg/mL
- IL-2 cytokine concentration (primary human T-cells; [7]): 0 pg/mL
- IL-4 cytokine concentration (primary human T-cells; [7]): 0 pg/mL
- IL-5 cytokine concentration (primary human T-cells; [7]): 0 pg/mL
- IL-6 cytokine concentration (primary human T-cells; [7]): 91.86 pg/mL
- IL-9 cytokine concentration (primary human T-cells; [7]): 0 pg/mL
- IL-10 cytokine concentration (primary human T-cells; [7]): 189.65 pg/mL
- IL-12p70 cytokine concentration (primary human T-cells; [7]): 0 pg/mL
- IL-13 cytokine concentration (primary human T-cells; [7]): 0 pg/mL
- IL-17 cytokine concentration (primary human T-cells; [7]): 104.68 pg/mL
- IL-22 cytokine concentration (primary human T-cells; [7]): 0 pg/mL
- INF-α cytokine concentration (primary human T-cells; [7]): 0 pg/mL
- TNF-α cytokine concentration (primary human T-cells; [7]): 41.38 pg/mL
- IL-1 cytokine concentration (primary human T-cells; [8]): 548.85 pg/mL
- IL-2 cytokine concentration (primary human T-cells; [8]): 2751.28 pg/mL
- IL-4 cytokine concentration (primary human T-cells; [8]): 73.38 pg/mL
- IL-5 cytokine concentration (primary human T-cells; [8]): 328.24 pg/mL
- IL-6 cytokine concentration (primary human T-cells; [8]): 1046.79 pg/mL
- IL-9 cytokine concentration (primary human T-cells; [8]): 286.89 pg/mL
- IL-10 cytokine concentration (primary human T-cells; [8]): 992.02 pg/mL
- IL-12p70 cytokine concentration (primary human T-cells; [8]): 0 pg/mL
- IL-13 cytokine concentration (primary human T-cells; [8]): 1026.08 pg/mL
- IL-17 cytokine concentration (primary human T-cells; [8]): 1355.07 pg/mL
- IL-22 cytokine concentration (primary human T-cells; [8]): 0 pg/mL
- INF-α cytokine concentration (primary human T-cells; [8]): 9454.26 pg/mL
- TNF-α cytokine concentration (primary human T-cells; [8]): 2985.72 pg/mL
- activity (reduction of pro-inflammatory cytokines) relative to K(D)PT (primary human T-cells; second experiment, all three cellular models): comparable
